# Test results from PubChem BioAssay AID248 (DTP/NCI, 2004).
# Values joined by “and” are separate entries in the source; they are usually repeats but may differ in a detail not shown here. Equal entries are not always repeated. Toxic doses and inconclusive results are not listed. Square brackets hold non-standard residues; d marks the D form. Peptide text beside a SMILES is read from it. βAla = NCCC(=O)O
# System: L1210 leukemia ip in BDF1 mice, survival T/C
# Assay: NCI In Vivo Anticancer Drug Screen. Data for tumor model L1210 Leukemia (intraperitoneal) in B6D2F1 (BDF1) mice
# Conditions: endpoint: mean survival time, higher = longer survival
# In short: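 Tumor was transplanted into mice, which were then dosed with test compound or vehicle alone. Survival was recorded for each group, and the treated figure was expressed relative to the control figure.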
# [1] = dose: 1.0 mg/kg/injection, schedule: Q01DX001 (ip), vehicle: saline
# [2] = dose: 100.0 mg/kg/injection, schedule: Q04DX003 (ip), vehicle: Klucel (hydroxypropylcellulose) (HPC)
# [3] = dose: 200.0 mg/kg/injection, schedule: Q04DX003 (ip), vehicle: Klucel (hydroxypropylcellulose) (HPC)
# [4] = dose: 100.0 mg/kg/injection, schedule: Q04DX003 (ip), vehicle: saline with Tween-80
# [5] = dose: 200.0 mg/kg/injection, schedule: Q04DX003 (ip), vehicle: saline with Tween-80
# [6] = dose: 400.0 mg/kg/injection, schedule: Q04DX003 (ip), vehicle: saline with Tween-80
# [7] = dose: 75.0 mg/kg/injection, schedule: Q01DX001 (ip), vehicle: saline
# [8] = dose: 150.0 mg/kg/injection, schedule: Q01DX001 (ip), vehicle: saline
# [9] = dose: 50.0 mg/kg/injection, schedule: Q01DX001 (ip), vehicle: carboxymethylcellulose (CMC)
# [10] = dose: 100.0 mg/kg/injection, schedule: Q01DX001 (ip), vehicle: carboxymethylcellulose (CMC)
# [11] = dose: 200.0 mg/kg/injection, schedule: Q01DX001 (ip), vehicle: carboxymethylcellulose (CMC)
# [12] = dose: 100.0 mg/kg/injection, schedule: Q01DX009 (ip), vehicle: Klucel (hydroxypropylcellulose) (HPC)
# [13] = dose: 200.0 mg/kg/injection, schedule: Q01DX009 (ip), vehicle: Klucel (hydroxypropylcellulose) (HPC)
smiles,measurement,setting,value
OC(CN(CCCl)CCCl)C(O)C(O)C(O)CN(CCCl)CCCl (configuration not stated),T/C,"dose: 0.06 mg/kg/injection, schedule: Q01DX Z (ip), vehicle: saline",102 % of control
same,T/C,"dose: 0.1 mg/kg/injection, schedule: Q01DX Z (ip), vehicle: saline",102 % of control
same,T/C,"dose: 0.15 mg/kg/injection, schedule: Q01DX Z (ip), vehicle: saline",105 % of control
same,T/C,"dose: 0.23 mg/kg/injection, schedule: Q01DX Z (ip), vehicle: saline",110 % of control
same,T/C,"dose: 0.25 mg/kg/injection, schedule: Q01DX Z (ip), vehicle: saline",103 % of control
same,T/C,"dose: 0.35 mg/kg/injection, schedule: Q01DX001 (ip), vehicle: saline",150 % of control
same,T/C,"dose: 0.6 mg/kg/injection, schedule: Q01DX Z (ip), vehicle: carboxymethylcellulose (CMC)",108 % of control
same,T/C,"dose: 0.8 mg/kg/injection, schedule: Q01DX001 (ip), vehicle: saline",154 % of control
same,T/C,"dose: 0.8 mg/kg/injection, schedule: Q01DX Z (ip), vehicle: saline",153 % of control and 170 % of control
same,T/C,"dose: 0.9 mg/kg/injection, schedule: Q01DX Z (ip), vehicle: carboxymethylcellulose (CMC)",102 % of control
same,T/C,[1],122 % of control
same,T/C,"dose: 1.35 mg/kg/injection, schedule: Q01DX Z (ip), vehicle: carboxymethylcellulose (CMC)",96 % of control
same,T/C,"dose: 1.9 mg/kg/injection, schedule: Q01DX001 (ip), vehicle: saline",158 % of control
same,T/C,"dose: 2.0 mg/kg/injection, schedule: Q01DX001 (ip), vehicle: saline",174 % of control
same,T/C,"dose: 2.0 mg/kg/injection, schedule: Q01DX Z (ip), vehicle: saline",155 % of control and 188 % of control
same,T/C,"dose: 2.03 mg/kg/injection, schedule: Q01DX Z (ip), vehicle: carboxymethylcellulose (CMC)",118 % of control
same,T/C,"dose: 4.0 mg/kg/injection, schedule: Q01DX001 (ip), vehicle: saline",152 % of control
same,T/C,"dose: 4.0 mg/kg/injection, schedule: Q01DX Z (ip), vehicle: saline",117 % of control
same,T/C,"dose: 5.0 mg/kg/injection, schedule: Q01DX001 (ip), vehicle: saline",194 % of control
same,T/C,"dose: 6.7 mg/kg/injection, schedule: Q01DX Z (ip), vehicle: saline",118 % of control
same,T/C,"dose: 8.0 mg/kg/injection, schedule: Q01DX001 (ip), vehicle: saline",97 % of control
CC(C)OP(=O)(Cc1ccccc1CBr)OC(C)C,T/C,"dose: 100.0 mg/kg/injection, schedule: Q04DX002 (ip), vehicle: saline",109 % of control
same,T/C,"dose: 200.0 mg/kg/injection, schedule: Q04DX002 (ip), vehicle: saline",102 % of control
same,T/C,"dose: 400.0 mg/kg/injection, schedule: Q04DX002 (ip), vehicle: saline",109 % of control
C=CS(=O)(=O)c1ccccc1Cl,T/C,[2],104 % of control
same,T/C,[3],98 % of control
CC(/C=C\c1ccc([N+](=O)[O-])cc1)=N\NC(=O)c1ccncc1,T/C,[4],98 % of control
same,T/C,[5],98 % of control
same,T/C,[6],96 % of control
Cc1c(C(=O)O)nnn1-c1ccccc1,T/C,[7],97 % of control
same,T/C,[8],96 % of control
CCC1(C)CC(=O)NC(=O)C1.[Tl],T/C,"dose: 3.12 mg/kg/injection, schedule: Q01DX009 (ip), vehicle: water",100 % of control
same,T/C,"dose: 3.12 mg/kg/injection, schedule: Q04DX003 (ip), vehicle: water",97 % of control
same,T/C,"dose: 6.25 mg/kg/injection, schedule: Q01DX009 (ip), vehicle: water",97 % of control
same,T/C,"dose: 6.25 mg/kg/injection, schedule: Q04DX003 (ip), vehicle: water",100 % of control
same,T/C,"dose: 12.5 mg/kg/injection, schedule: Q04DX003 (ip), vehicle: water",105 % of control
CCOC(=O)C12CCCC(C1=O)[N+](CC)(CC)CC2 (configuration not stated),T/C,[7],100 % of control
same,T/C,[8],101 % of control
C[Si](C)(C)OCCCCCCCl,T/C,[9],108 % of control
same,T/C,[10],101 % of control
same,T/C,[11],95 % of control
same,T/C,"dose: 400.0 mg/kg/injection, schedule: Q01DX001 (ip), vehicle: carboxymethylcellulose (CMC)",103 % of control
O=C(Nc1ccccc1)OC1CCCCC1OC(=O)Nc1ccccc1 (configuration not stated),T/C,"dose: 100.0 mg/kg/injection, schedule: Q04DX002 (ip), vehicle: saline with Tween-80",87 % of control
same,T/C,"dose: 200.0 mg/kg/injection, schedule: Q04DX002 (ip), vehicle: saline with Tween-80",107 % of control
same,T/C,"dose: 400.0 mg/kg/injection, schedule: Q04DX002 (ip), vehicle: saline with Tween-80",97 % of control
COc1ccc(C(C#N)N2CCOCC2)cc1 (configuration not stated),T/C,"dose: 50.0 mg/kg/injection, schedule: Q01DX009 (ip), vehicle: Klucel (hydroxypropylcellulose) (HPC)",92 % of control
same,T/C,[12],93 % of control
same,T/C,[2],96 % of control
same,T/C,[13],96 % of control
same,T/C,[3],91 % of control
CN1C(=O)C2C(N=CN2C)N(C)C1=O (configuration not stated),T/C,"dose: 100.0 mg/kg/injection, schedule: Q01DX009 (ip), vehicle: saline with Tween-80",96 % of control
same,T/C,"dose: 200.0 mg/kg/injection, schedule: Q01DX009 (ip), vehicle: saline with Tween-80",90 % of control
Nc1nc2ncc(CNc3cnc(C(=O)NC(CCC(=O)O)C(=O)O)nc3)nc2c(=O)[nH]1 (configuration not stated),T/C,"dose: 50.0 mg/kg/injection, schedule: Q01DX009 (ip), vehicle: alkali diluted with saline",107 % of control
same,T/C,"dose: 100.0 mg/kg/injection, schedule: Q01DX001 (ip), vehicle: saline with Tween-80",103 % of control
same,T/C,"dose: 200.0 mg/kg/injection, schedule: Q01DX001 (ip), vehicle: saline with Tween-80",112 % of control
CC(NC(=O)C(CCC(=O)O)NC(=O)C(N)Cc1ccc(O)cc1)C(=O)NCCC(=O)NC(Cc1ccc(O)cc1)C(=O)NC(CCC(=O)O)C(=O)NC(C)C(=O)NCCC(=O)NCC(=O)O (configuration not stated) (H-YEA[βAla]YEA[βAla]G-OH; configuration not given here),T/C,[9],93 % of control
same,T/C,[10],96 % of control
same,T/C,[11],98 % of control
Oc1cccc(/C=N/NC(=S)Nc2ccccc2)c1,T/C,[12],104 % of control
same,T/C,[13],96 % of control
same,T/C,"dose: 400.0 mg/kg/injection, schedule: Q01DX009 (ip), vehicle: Klucel (hydroxypropylcellulose) (HPC)",93 % of control
COC(=O)C(N)CO (configuration not stated),T/C,[4],105 % of control
same,T/C,[5],105 % of control
same,T/C,[6],91 % of control
NC(N)=NC(N)=NCCc1ccccc1,T/C,"dose: 100.0 mg/kg/injection, schedule: Q01DX001 (ip), vehicle: saline",94 % of control
same,T/C,"dose: 200.0 mg/kg/injection, schedule: Q01DX001 (ip), vehicle: saline",94 % of control
CCCCCCCCCCCC[n+]1cccc2ccccc21,T/C,"dose: 0.13 mg/kg/injection, schedule: Q01DX Z (ip), vehicle: carboxymethylcellulose (CMC)",112 % of control
same,T/C,"dose: 0.25 mg/kg/injection, schedule: Q01DX Z (ip), vehicle: carboxymethylcellulose (CMC)",96 % of control
same,T/C,"dose: 0.25 mg/kg/injection, schedule: Q04DX003 (ip), vehicle: saline",97 % of control
same,T/C,"dose: 0.5 mg/kg/injection, schedule: Q01DX001 (ip), vehicle: saline",93 % of control
same,T/C,"dose: 0.5 mg/kg/injection, schedule: Q01DX Z (ip), vehicle: carboxymethylcellulose (CMC)",98 % of control
same,T/C,"dose: 0.5 mg/kg/injection, schedule: Q04DX003 (ip), vehicle: saline",92 % of control
same,T/C,"dose: 0.7 mg/kg/injection, schedule: Q01DX009 (ip), vehicle: saline",92 % of control
same,T/C,[1],88 % of control
same,T/C,"dose: 1.0 mg/kg/injection, schedule: Q01DX015 (ip), vehicle: carboxymethylcellulose (CMC)",108 % of control
same,T/C,"dose: 1.0 mg/kg/injection, schedule: Q01DX Z (ip), vehicle: carboxymethylcellulose (CMC)",98 % of control
same,T/C,"dose: 1.0 mg/kg/injection, schedule: Q04DX003 (ip), vehicle: saline",108 % of control
same,T/C,"dose: 1.4 mg/kg/injection, schedule: Q04DX003 (ip), vehicle: saline",94 % of control
same,T/C,"dose: 2.0 mg/kg/injection, schedule: Q01DX015 (ip), vehicle: carboxymethylcellulose (CMC)",106 % of control
Oc1ccc(/C=N/Nc2nc3ccccc3s2)c(O)c1,T/C,"dose: 222.0 mg/kg/injection, schedule: Q01DX Z (ip), vehicle: methylcellulose (MC)",88 % of control
same,T/C,"dose: 333.0 mg/kg/injection, schedule: Q01DX Z (ip), vehicle: methylcellulose (MC)",91 % of control
same,T/C,"dose: 500.0 mg/kg/injection, schedule: Q01DX Z (ip), vehicle: methylcellulose (MC)",94 % of control
